{
  "source": "patent EP4552639A1",
  "about": "“COMPOUNDS FOR USE IN THE TREATMENT OF GASTROINTESTINAL STROMAL TUMOR (GIST)” (priority 2023, dated 2025)",
  "test_system": "KIT/PDGFRA-mutated cell lines",
  "assay": "Cell viability assay (GR50)",
  "format": "cell-based",
  "conditions": "Figure 2",
  "description": "Cell viability assays were performed as previously described (Grunewald, S., et al., Resistance to avapritinib in PDGFRA-driven GIST is caused by secondary mutations in the PDGFRA kinase domain. Cancer Discov, 2020). To generate the results presented in Figures 2 and 3, cells were plated at 4000-16000 cells/well in a 96-well plate and cultured overnight. Cells were then incubated in triplicates with media containing inhibitors or solvent control (DMSO) for 72 hours. The sulforhodamine B (SRB) assay was used according to the method of Skehan and colleagues (Skehan, P., et al., New colorimetric cytotoxicity assay for anticancer-drug screening. J.Natl.Cancer Inst., 1990. 82(13): p. 1107-1112).\nTo generate the results in for the KIT-driven cell lines (GIST-T1; T1-D816E, and T1-V654A) in Figures 1, 6, 7, and 8, cells were plated in triplicates at 400 cells/well in a 384-well plate with media containing inhibitors or solvent control (DMSO) and incubated for 72 hours. The Cell Titer Glo assay (Promega) was applied according to manufacturer's instructions. Absorption or luminescence was measured with a SPARK™ Plate reader (Tecan, Switzerland). One measurement of untreated cells at the at the start of treatment served as baseline for growth reduction (GR) calculations. […]",
  "data": [
    {"smiles": "NC(=O)Nc1cc(-c2cccc(F)c2)sc1C(=O)N[C@H]1CCCNC1", "note": "[Preparation Example 3a.1, (S)-5-(3-fluorophenyl)-N-(piperidin-3-yl)-3-ureidothiophene-2-carboxamide]", "values": [
      {"measurement": "cellular GR50 (concentration of a drug that reduces cell growth rate by half)", "value": "1 to 30", "unit": "nM"}
    ]}
  ]
}
